Data published in article PMC7733455, “A novel multistage antiplasmodial inhibitor targeting Plasmodium falciparum histone deacetylase 1” (Cell Discovery, 2020).

Legend:
P. falciparum C2A = assay: 3-day SYBR Green I GIA, strain C2A; assay type: cell-based; conditions: Plasmodium falciparum, read-out: Resistant isolates EC50, C2A
Protocol: A 3-day SYBR Green I inhibition EC50 assay was performed as described previously. Briefly, highly synchronized ring-stage parasites by 5% sorbitol (1% parasitemia and 2% hematocrit) were incubated in a 96-well plate with compounds in a total volume of 200 μL. […] The parasites were cultured for 72 h before SYBR Green I staining as described above. The EC50 was calculated by GraphPad Prism. DHA was used as a positive control, and the final concentration of DMSO was 1%.

[1] = system: P. falciparum clinical isolates 6218 and 6320; assay: Ring-stage survival assay (RSA), isolates 6218 and 6320; assay type: cell-based, Plasmodium falciparum; conditions: 700 nM, isolates 6218 and 6320
Protocol: An RSA was performed as described previously[65] to evaluate the activity of JX21108 against the artemisinin- and piperaquine-resistant P. falciparum clinical isolates 6218 and 6320[43]. Briefly, parasites were highly synchronized at 0–3 hpi by a 60%/40%-Percoll gradient[66] followed by 5% D-sorbitol[67] treatment after 3 h. The parasite suspension (0.5%–1% parasitemia, 2% hematocrit) was incubated with compounds at 700 nM in a total volume of 2 mL in a 48-well plate for 6 h. After that, the culture mixture was washed three times with 15 mL of CM before another 66 h of cultivation with CM. A Giemsa-stained blood smear was made after cultivation. Parasitemia was counted from at least 10,000 RBCs by microscopy. The survival rate was calculated as the percentage of that in DMSO control. DHA at a concentration of 700 nM served as a positive control.

[2] = Liver microsome metabolism assay, rat; assay type: in vitro ADME; conditions: rat liver microsomes
Protocol: Liver microsomes (0.5 mg/mL) were purchased from Corning. Ketanserin was selected as a positive control. The tested compounds were first dissolved in DMSO to a concentration of 10 mM and then diluted to 0.5 mM with acetonitrile. Liver microsome buffer was used to dilute the compounds to a working concentration of 1.5 µM, 30 µL of which was mixed with 15 µL of 6 mM NADPH at 37 °C. At 0, 5, 15, 30, and 45 min after incubation, 135 µL of acetonitrile was added to quench the reaction. The mixture was shaken on a vortex mixer (IKA, MTS 2/4) for 10 min at 600 rpm/min and then centrifuged at 5594× g for 15 min (Thermo Multifuge×3R). The supernatant was diluted 1:1 into distilled water, and analyzed by LC-MS/MS.

[3] = system: P. falciparum NF54 stage II gametocytes; assay: In vitro gametocyte inhibition assay, stage II; assay type: cell-based, Plasmodium falciparum; conditions: NF54 luciferase line, 48 h exposure
Protocol: (§1) To test the activities of JX21108 against different gametocyte stages, the P. falciparum producer NF54^p230p-luc was utilized, as described previously. […] Luciferase intensity based on luciferase expression was detected as described above. The EC50 was calculated by GraphPad Prism. DMSO (1%) was used as a negative control.

[4] = system: P. falciparum NF54 stage IV gametocytes; assay: In vitro gametocyte inhibition assay, stage IV; assay type: cell-based, Plasmodium falciparum; conditions: NF54 luciferase line, 48 h exposure
Protocol: as §1

hHDAC8 = target: T1, hHDAC8 (Homo sapiens, UniProt Q9BY41); assay: Human HDAC inhibition assay, hHDAC8; assay type: biochemical; conditions: performed only once; read-out: Inhibitory Activity IC50, hHDAC8
T1 construct: purchased BPS Bioscience 50008
Protocol: SAHA and suramin were used as positive controls. The tested compounds were dissolved into 20 mM stock in 100% DMSO. […] Ten microliters of trypsin and Ac-peptide substrate/Tris buffer solution were added to start the reaction, followed by a 1-h incubation at room temperature for HDACs 1–3 and 6. Ten microliters of Ac-peptide substrate/Tris buffer solution was added to start the reaction, followed by a 4-h incubation at room temperature and a further 2-h incubation with trypsin solution for HDAC8 and Sirt 2. […] This experiment was performed only once.

[5] = system: parasite histone H3 acetylation; assay: Western blot of histone H3 acetylation in parasites; assay type: cell-based, Plasmodium falciparum; conditions: 4 h treatment of asynchronous 3D7; quisinostat/JX21108 5 and 20 nM, SAHA 500 nM
Protocol: Then the parasite samples were harvested and treated with 0.15% saponin to remove the RBC proteins and sonicated in 1% NP40 lysis buffer. After centrifugation at 12,000× g for 15 min, the supernatant was resuspended in a routine SDS loading buffer. Parasite proteins were separated by 10% SDS-PAGE and transferred onto PVDF membranes (Millipore). […] A2348) followed by a secondary antibody conjugated with HRP (Jackson Immuno Research Laboratories). The chemiluminescent HRP substrate Immobilon Western Kit (Millipore) was used for signal detection.

P. falciparum 3D7 = assay: Stage-specific parasite inhibition assay; assay type: cell-based, Plasmodium falciparum; conditions: 40 nM
Protocol: To analyze the stage-specific parasite inhibition, highly synchronized parasites were cultured in 24-well plates with a starting parasitemia of 1% at a hematocrit of 2%. After 12 h of culture with the tested compounds at a concentration of 40 nM, parasites were washed three times to remove the compounds, and parasitemia was diluted 1:40 by new RBCs into CM for another 4 days of culture. DMSO was used as a blank control. Parasitemia was counted by flow cytometry. Flow cytometry was conducted as described previously. Briefly, the parasite-infected RBCs were fixed in 4% formaldehyde/0.015% glutaraldehyde for 30 min at room temperature and incubated with 500 μL of a SYBR green staining solution (Invitrogen) (1:5000) in 1× PBS (phosphate-buffered saline, pH 7.4, without calcium and magnesium). Cells were washed three times with 1× PBS prior to flow-cytometry analysis on a MoFloAstrios EQ instrument (BECKMAN COULTER). RBCs (5 × 10^5) were measured (excitation 488 nm; emission detection FL1 513 ± 26 nm), and a value of 5 on FL1 (SYBR Green intensity) was applied as a threshold to identify (gate) the infected RBCs (iRBCs). Acquired data were processed using the FlowJo software (v.10.0.5).

[6] = system: asynchronous 3D7 parasites; assay: Time- and dose-dependent parasite inhibition assay; assay type: cell-based, Plasmodium falciparum
Protocol: Asynchronous parasites (2% parasitemia, 4% hematocrit) were treated with the tested compounds at a concentration of 10, 30, 60, or 100 nM, respectively. At 3, 6, 12, and 24 h post treatment, parasitemia of each sample was detected by flow cytometry to investigate the time-dependent activity. Parasites from the same treatment were further washed to remove compounds, and parasitemia was diluted 1:40 by new RBCs into CM for an additional 4 days of culture. Parasitemia of each sample was detected by flow cytometry as described above to investigate the dose-dependent activity. DMSO was used as a blank control.

[7] = Plasmodium falciparum, NF54, 48 h

T1 sequence (Q9BY41 whole entry): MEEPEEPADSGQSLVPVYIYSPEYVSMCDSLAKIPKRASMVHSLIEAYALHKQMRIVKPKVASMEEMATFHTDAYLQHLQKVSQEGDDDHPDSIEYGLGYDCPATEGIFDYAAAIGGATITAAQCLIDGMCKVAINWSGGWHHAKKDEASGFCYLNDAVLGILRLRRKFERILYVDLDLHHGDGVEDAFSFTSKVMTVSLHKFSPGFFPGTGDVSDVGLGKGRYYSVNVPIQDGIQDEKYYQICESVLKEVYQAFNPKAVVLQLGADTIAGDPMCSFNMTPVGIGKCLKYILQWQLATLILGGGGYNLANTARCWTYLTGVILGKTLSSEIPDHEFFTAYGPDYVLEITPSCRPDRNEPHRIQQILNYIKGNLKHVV

For Cl.Cn1cc(CN2CCC3(CCN(c4ncc(C(=O)NO)cn4)C3)C2)c2cc(C#N)ccc21 (stereo not drawn) [JX21108], the EC50 (P. falciparum C2A) was 2.9 ± 0.7 nM, the “RSA effect on ring-stage parasites” value [1] was “greatly inhibited parasite growth at ring stage of 6218 and 6320” and the CLint scaled at 1 µM ([2]; read-out: CL in liver microsomes) was 196 mL/min/kg. The half-life at 1 µM ([2]; read-out: T1/2 in liver microsomes) was 12.7 min, the EC50 [3] was 38.8 ± 17.8 nM and the EC50 [3, 7] was 38.8 ± 17.8 nM. The EC50 [4] was 5.9 ± 1.97 nM, the EC50 [4, 7] was 5.85 ± 1.97 nM and the IC50 (hHDAC8) was 62 nM. For the same molecule, the “pan-acetylation levels of parasite histone H3” value [5] was “greatly increased the pan-acetylation levels of parasite histone H3”, the “stage dependence of parasite killing (parasitemia at 4 dpi)” value (P. falciparum 3D7; 12-h treatment) was “treatment at the schizont stage was more active in parasite killing than that at the ring and trophozoite stages” and the “asexual development of parasites to the next cycle” value (P. falciparum 3D7; 12-h treatment at ring, trophozoite and schizont stages) was “strongly block the asexual development of parasites to the next cycle”. For the same molecule, the “parasite growth after 3 h of treatment” value ([6]; 100 nM, 3 h, washed, 4 days culture) was “completely blocked parasite growth”, the “parasitemia measured 4 days after 6-h treatment” value ([6]; 6-h treatment, washed, 1:40 dilution, 4 days culture) was “substantial reduction in parasitemia” and the “asexual growth of 3D7 after 12- and 24-h treatments” value ([6]; 10-100 nM, parasitemia immediately after treatment) was “significantly inhibited the asexual growth of 3D7 parasites”.
